# Measurements: patent publication US9187458B2, “Cyanoquinoline derivatives” (Tianjin Hemay Bio-Tech Co., LTD., priority 2010, dated 2015)
# Experiments:
# MDA-MB-453 cells = experiment: MDA-MB-453 Cell Growth Inhibition Test (SRB Assay); format: cell-based; conditions: Homo sapiens, 72 h incubation
# Experimental: MDA-MB-453 Cell Growth Inhibition Test (SRB Assay)
# Cell strains: MDA-MB-453 (human breast cancer cell strains);
# SRB: 0.4% (w/v) working solution was formulated with 1% glacial acetic acid, reserved at 4° C.; antitumor compounds; DMSO
# Culture medium: 90% L15+10% FBS;
# (§1) 1. A plate (10 cm) of cells in logarithmic growth phase normally cultured was collected;
# 2. The culture solution was sucked out. The plate was washed with 5 mL of PBS 1-2 times;
# 3. 1.5 mL of 0.25% pancreatin was added to the plate to infiltrate the cells;
# 4. The pancreatin was sucked out. The culture plate was placed in an incubator. Digestion was carried out for about 3 min at 37° C.;
# 5. 4 mL of complete culture solution was added to the culture plate to stop the digestion. The cells were carefully scoured with micropipette (1 ml) to give a uniform single cell suspension. The suspension was implanted into a 96-well cell culture plate by 7000 cells/100 μl per well. The culture plate was incubated overnight under 5% CO2 at 37° C. In day 2, 100 μl of culture solution comprising a compound was added in each well, and further incubated for 72 h under 5% CO2 at 37° C.;
# 6. The culture solution was sucked out. 100 uL of TCA fixed cells which were diluted to 10% were added to each well. The plate was kept in a refrigerator for 1 h at 4° C.
# 7. TCA stationary liquid was sucked out. […]
# 13. OD values were determined at […]. […]
# NCI-H358 cells = experiment: NCI-H358 Cell Growth Inhibition Test (MTT Assay); format: cell-based; conditions: Homo sapiens, 72 h incubation
# Experimental: NCI-H358 Cell Growth Inhibition Test (MTT Assay)
# Cell strains: NCI-H358 (human non-small cell lung cancer cell strains);
# as §1
# 2. The culture solution was sucked out. The plate was washed with 5 ml of PBS 1-2 times;
# 3. PBS was sucked out. 1.5 ml of 0.25% pancreatin was added to infiltrate the cells for 1 min;
# 4. The culture plate was placed in an incubator. Digestion was carried out for about 5 min at 37° C.;
# 5. 3 ml of complete culture solution was added to the culture plate to stop the digestion. Tthe cells were carefully scoured with micropipette (1 ml) to give a uniform cell suspension. The suspension was implanted into a 96-well cell culture plate by 10000 cells/100 […] per well. The culture plate was incubated overnight under 5% CO2 at 37° C. In day 2, 100 μA of culture solution comprising a compound was added in each well, and further incubated for 72 h under 5% CO2 at 37° C.
# 6. The culture solution was sucked out;
# 7. 100 μA of serum-free culture solution containing 0.5 mg/ml MTT was added in each well, and incubated for 3 h;
# 8. The culture solution was carefully sucked out;
# 9. 100 μA of DMSO was added in each well and vibrated to dissolve;
# 10. OD values were determined at 490 nM.
# 1. Calculation of Relative Inhibition Ratio The inhibition ratio of a compound on cell growth=(PC−n)/(PC−NC)×100%
# IC50: Concentration of a compound where inhibition ratio was 50%. IC50 values were fitted with Origin7.5.
Compound,IC50 (MDA-MB-453 cells),IC50 (NCI-H358 cells)
"C#Cc1cccc(Nc2c(C#N)cnc3cc(OC4CCOC4)c(NC(=O)/C=C/CN(C)C)cc23)c1 (stereo not drawn) [Example 5, (E)-N-(3-CYANO-4-(3-ETHYNYLPHENYLAMINO)-7-(TETRAHYDROFURAN-3-YL-OXY)QUINOLIN-6-YL)-4-(DIMETHYLAMINO)-BUT-2-ENAMIDE]",505 nM,–
"CN(C)C/C=C/C(=O)Nc1cc2c(Nc3ccc(OCc4ccccn4)c(Cl)c3)c(C#N)cnc2cc1O[C@H]1CCOC1 [Example 138, (S,E)-N-(4-(3-CHLORO-4-(PYRIDIN-2-YL-METHOXY)PHENYLAMINO)-3-CYANO-7-(TETRAHYDROFURAN-3-YL-OXY)QUINOLIN-6-YL)-4-(DIMETHYLAMINO)-BUT-2-ENAMIDE]",–,54 nM
"CC(C)(C)NC/C=C/C(=O)Nc1cc2c(Nc3ccc(OCc4ccccn4)c(Cl)c3)c(C#N)cnc2cc1O[C@H]1CCOC1 [Example 153, (S,E)-N-(4-(3-CHLORO-4-(PYRIDIN-2-YL-METHOXY)PHENYLAMINO)-3-CYANO-7-(TETRAHYDROFURAN-3-YL-OXY)QUINOLIN-6-YL)-4-(TERT-BUTYLAMINO)-BUT-2-ENAMIDE]",–,78 nM
